In US5387512A, “Preparation of 3-[z-benzoxazol-2-yl)ethyl]-5-(1-hydroxyethyl)-6-methyl-2-(1H)-pyridinon e by biotransformation” (Merck & Co. Inc., priority 1992, dated 1995):

Experiments:
[1] = target: T1, recombinant HIV reverse transcriptase (HIV RTR) (Human immunodeficiency virus type 1 group M subtype B, UniProt P04585); assay: Reverse Transcriptase Assay; assay type: biochemical; details: incorporation of [3H]dGMP into acid-precipitable cDNA; dGTP and poly r(C).oligo d(G)12-18 at Km; 37° C., 45 minutes; read-out: calculated IC50 value
T1 construct: recombinant HIV reverse transcriptase (HIV RTR)
Protocol: The assay measures the incorporation of tritiated deoxyguanosine monophosphate by recombinant HIV reverse transcriptase (HIV RTR) (or other RT) into acid-precipitable cDNA at the Km values of dGTP and poly r(C).oligo d(G)12-18.
Thirty uL of a reaction mixture containing equal volumes of: 500 mM Tris.HCl (pH 8.2), 300 mM MgCl2, 1200 mM KCl, 10 mM DTT, 400 μg/mL poly r(c).oligo d(G) [prepared by dissolving 1.5 mg (25 U) poly r(C).oligo d(G) in 1.5 ml sterile distilled H2 O and diluting to 400 μg/ml], 0.1 μCi/μl [^3 H] dGTP, 160 μM dGTP, was added to 10 μl sterile distilled H2 O, and 2.5 μl of potential inhibitor. An aliquot of 10 μL of 5 nM purified HIV RTR was added to initiate the reaction. The mixture was incubated at 37° C. for 45 minutes.
After incubation is complete, the tubes were cooled in ice for 5 minutes. Ice-cold 13% TCA containing 10 mM NaPPi (200 μl) are added and the mixture incubated on ice for 30 minutes. The precipitated cDNA is removed by filtration using presoaked glass filters [TCA, NaPPi ]. The precipitate is then washed with 1N HCl, 10 mM NaPPi.
The filter discs are then counted in a scintillation counter.
Under these conditions [dGTP] and poly r(C).oligo d(G)12-18 each are approximately equal to the appropriate Km value. Approximately 5-6,000 cpm of [^3 H] GMP are incorporated into acid-precipitable material. The RT reaction is concentration- and time-dependent.

[2] = Incubation With Rat Liver Slices; assay type: in vitro ADME
Protocol: Incubation of tritiated 3-[2-(benzoxazol-2-yl)ethyl]-5-ethyl-6-methyl-2-(1H)-pyridinone (parent compound/14.18 μmol) with rat liver slices (6.1 g) in 100 ml of Williams Medium E at pH. […] Ethyl acetate extraction gave a recovery of ~70% of the tritiated material, while ~25% (~9 HPLC peaks) remained in the aqueous residue.

metabolised at 4 h ([2]; tritiated compound 14.18 μmol, rat liver slices 6.1 g, Williams Medium E, pH 7.4, 37° C., four hours, read-out: metabolism) [%]	Structure (SMILES)	IC50 [1] [nM]	radioactive HPLC peak, share of the total metabolites ([2]; ethyl acetate extract after four hours incubation of parent compound with rat liver slices)
–	Cc1[nH]c(=O)c(CCc2nc3ccccc3o2)cc1C(C)O (stereo not drawn) [compound (I), 3-[2-(benzoxazol-2-yl)ethyl]-5-(1-hydroxyethyl)-6-methyl-2(1H)-pyridinone]	~710	~ 37%
~32	CCc1cc(CCc2nc3ccccc3o2)c(O)nc1C [parent compound, 3-[2-(Benzoxazol-2-yl)ethyl]-5-ethyl-6-methyl-2-(1H)-pyridinone]	–	–
